Measurements from patent US10577399B2, “Modified lantibiotics and methods of making and using the modified lantibiotics” (priority 2016, dated 2020).
In brackets after ≈: the same amount, converted by molar mass. Entries after “also recorded” stand apart in the source; their conditions may differ.

How the values were obtained:
M. luteus ATCC 10240 = assay type: cell-based, Micrococcus luteus
In short: (§1)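 Broth microdilution: antibiotic in 50% acetonitrile, 2-fold dilutions from 640 μg/mL stock down to 0.156 μg/mL, 10 μL per well plus 190 μL of ~10^5 CFU bacteria grown in THyex at 37 °C. MIC read as concentration preventing visible growth after 24 h.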

S. pneumoniae ATCC 27336 = assay type: cell-based, Streptococcus pneumoniae
In short: as §1

[1] = Lipid II binding assay by thin layer chromatography; conditions: 3:10 peptide:lipid II ratio
Experimental: Lipid II was a kind gift from Eefjan Breukink and was resuspended in a 1:1 Methanol:Chloroform solution. The lipid II binding assay using thin layer chromatography (TLC) was done as previously described^39. The mobile solvent consisted of consisted of butanol:acetic acid:water:pyridine (15:3:12:10 [vol/vol/vol/vol]). A 0.2 mM solution of mutacin 1140 or mu1140-COOH in 10 μL of solution A was mixed with lipid II (final […]) for 1 hour in a sealed glass vial. This corresponded to a ratio 3:10 peptide:lipid II ratio. All of the reaction mixtures and the appropriate controls were spotted (5 μL) 2 cm from the bottom of the plate. These spots define the origin of the plate. […] The mobile phase was allowed to climb up the plate until it reached a centimeter from the top. The plate was allowed to dry before staining with iodine.
With the loss of activity associated with a free carboxyl group in mu1140-COOH, the basis for the loss in activity was studied. The mechanism of action for class I lantibiotics has been determined to be due to lipid II binding^34-36. In particular, rings A and B are believed to form a cage-like structure around the pyrophosphate moiety of lipid II^37. The latter half of the peptide is predicted to enhance binding and recruit other lipid II-lantibiotic molecules into a large lipid II-lantibiotic complex^16. […]

B. subtilis PY79 cells = test: Microscopy lipid II competition assay with fluorescein labeled nisin; assay type: cell-based, Bacillus subtilis; conditions: pretreatment 10 μg/mL for 15 minutes
Experimental: B. subtilis PY79 was grown and treated with fluorescein labeled peptide as previously described^39. A fresh plate of B. subtilis was used to inoculate THyex broth and incubated approximately 16 hours at 37° C. The culture was diluted 20-fold and placed back in the incubator for 3 hours at 37° C. Then, 100 μl of the culture was incubated with the antibiotic (10 μg/mL) for 15 minutes. The cells were pelleted and resuspended in 100 μl of phosphate buffer solution (PBS). The wash step was repeated three times before fixing with 1.6% formaldehyde in PBS. After fixation the cells were washed with PBS three more times and the remaining pellet was suspended in 50 μL of PBS. The sample (30 μL) was added to a slide and observed using an Olympus confocal microscope with a 100×/0.90 dry objective. A 488 nm argon laser was used to excite the fluorophore. For the competition assay, the bacterial culture was initially incubated with mu1140-COOH or native mutacin 1140 at a concentration of 10 μg/mL for 15 minutes, washed, and resuspended in fresh media. 10 μg/mL of fluorescein labeled nisin was then added for 15 minutes, before following the wash protocol previously stated.

Solubility in saline = assay type: physicochemical; conditions: saline solution
[2] = Pharmacokinetics after intravenous dose in mice; assay type: in vivo; conditions: mouse, iv, 2.5 mg/kg i. v., BALB/c mice, polynomial second order estimate
Experimental: The compounds were dissolved in normal saline for all pharmacokinetic studies. An extraction protocol was developed in vitro by the addition of each compound to commercially bought BALB/c mouse serum. The compounds were extracted by the addition of 70% ACN containing 0.1% TFA/30% methanol containing 0.4% formic acid. The extract was then analyzed by LC-MS using a TSQ Vantage Triple Quad mass spectrometer. A standard curve was generated for each compound using known dilutions of the compounds in serum, which was then extracted. The R-squared values for each standard exceeded 0.98. BALB/c mice were used to evaluate pharmacokinetics of the compounds in vivo. A 2.5 mg/kg i. v. dose was evaluated for native mutacin, R13A, S5G, and double mutant S5A:T14G (FIG. 12A). A polynomial second order was used to estimate the peak plasma concentration and half-life of the R13A. […] Possibly, the Dhb14 residue may protect the peptide from trypsin-like proteases in the blood. […] Thus, taking the dynamics of cell death into account and the pharmacokinetics of the R13A, the R13A in serum is above the inhibitory concentration for S. pneumonia long enough to kill the pathogen.

trypsin = test: Trypsin stability screen with M. luteus overlay; assay type: in vitro ADME; conditions: 0.5 mg/mL trypsin, 37° C., 30 minutes
Excerpt: Selective activity and stability of analogs: Several core peptide mutants are provided that have improved activity against our ATCC strain of S. pneumoniae. These core peptide mutants were also selected based on the absence of a dehydrated residue Dha/Dhb or the proteolytically susceptible arginine residue. […] Although the analog S5G had improved activity against S. pneumoniae ATCC 27336 compared to native mutacin and R13A, the S5G had less activity against all other tested strains of S. pneumoniae. […] 4) The R13A mutation prevents feedback inhibition of mutacin 1140 production, leading to a 100% increase in yield from the culture liquor. […] They are important for immunoregulation and blood coagulation. The observed increase in stability of the R13A analog will likely be advantageous in an animal model.

| Compound | MIC (μg/mL) M. luteus (M. luteus ATCC 10240; Table 7, chemically modified analogs) [µg/mL] | reduction in activity compared to wild type mutacin 1140 (MIC, M. luteus) (M. luteus ATCC 10240; vs wild type mutacin 1140) [fold] | MIC (μg/mL) S. pneumoniae (S. pneumoniae ATCC 27336; Table 7, S. pneumoniae ATCC 27336) | reduction in activity (MIC, S. pneumoniae ATCC 27336) (S. pneumoniae ATCC 27336; vs wild type mutacin 1140) [fold] | iodine stain at the origin of the TLC plate when mixed with lipid II [1] | binding of fluorescein labeled nisin after pretreatment of cells (B. subtilis PY79 cells) | MIC (M. luteus ATCC 10240; Table 10, indicator strain Micrococcus luteus) [µg/mL] | solubility (Solubility in saline) [µg/mL] | half-life ([2]; in vivo, read-out: estimated half-life) [h] | Cmax ([2]; plasma, read-out: peak plasma concentration) [ng/mL] | stability to trypsin (trypsin) |
| --- | --- | --- | --- | --- | --- | --- | --- | --- | --- | --- | --- |
| C=C1NC(=O)[C@H](Cc2c[nH]c3ccccc23)NC(=O)[C@H](NC(=O)[C@H](CCCCN)NC(=O)[C@@H](N)Cc2ccccc2)CSC[C@@H](C(=O)N[C@H]2C(=O)N3CCC[C@H]3C(=O)NCC(=O)N[C@H](C(=O)N[C@@H](C)C(=O)N[C@@H](CCCNC(=N)N)C(=O)N/C(=C\C)C(=O)NCC(=O)N[C@@H]3CSC[C@@H]4NC(=O)[C@H](Cc5ccc(O)cc5)NC(=O)[C@@H](CSC[C@@H](C(=O)O)NC4=O)NC(=O)[C@H](CC(N)=O)NC(=O)[C@H](Cc4ccccc4)NC3=O)CS[C@H]2C)NC(=O)[C@H](CC(C)C)NC1=O [Mu1140 - COOH] | 32 (≈ 13.8 µM) | 256 | greater than 64 μg/mL | > 128 | faint stain | no typical in vivo fluorescence pattern was observed; also recorded: drastically reduces binding of fluorescein labeled nisin |  |  |  |  |  |
| C=C1NC(=O)[C@H](Cc2c[nH]c3ccccc23)NC(=O)C(NC(=O)[C@H](CCCCN)NC(=O)[C@@H](N)Cc2ccccc2)CSC[C@@H](C(=O)NC2C(=O)N3CCC[C@H]3C(=O)NCC(=O)N[C@H](C(=O)N[C@@H](C)C(=O)N[C@@H](C)C(=O)NC(=CC)C(=O)NCC(=O)NC3CSC[C@@H]4NC(=O)[C@H](Cc5ccc(O)cc5)NC(=O)[C@@H](CS/C=C\NC4=O)NC(=O)[C@H](CC(N)=O)NC(=O)[C@H](Cc4ccccc4)NC3=O)CSC2C)NC(=O)[C@H](CC(C)C)NC1=O (some centres unmarked) [Mutant R13A] |  |  |  |  |  |  | 0.0625 (≈ 0.0287 µM) | > 2000 | 1.17 | 1700 | improved stability |
